According to patent US20250108100A1, “C-TERMINAL FRAGMENT OF APOLIPOPROTEIN E AND APPLICATION THEREOF IN INHIBITING y-SECRETASE ACTIVITY” (SYNPHATEC (SHANGHAI) BIOPHARMACEUTICAL TECHNOLOGY CO., LTD., priority 2022, published 2025):
Entries after “also recorded” stand apart in the source; their conditions may differ.

Experiments:
[1] = system: human APP co-expressed in HEK 293T cells; experiment: α-CTF produced by APP co-expressed in HEK 293T cells (Western blot); type: cell-based; details: for α-CTF produced by co-expressed APP: Western blot, vs GFP control
Protocol: • a) A plasmid expressing the target protein in mammalian cells was constructed, and the protein expression promoter is CAG. • b) The target protein was expressed in HEK 293T cell line. Cells were subcultured one day before transfection, and transfection was performed when the degree of cell adhesion reached 70%-80%. The transfection reagent was lipofectamine2000 (ThermoFisher). • c) 4-6 hours post transfection, the medium were replaced with fresh cell culture medium. • d) 36-48 hours post transfection, the cells were lysed (10% 1M tris-HCl (pH=6.8), 4% SDS, 20% glycerol, 0.01% bromophenol blue), and the protein samples were collected and used for Western blot or stored in a −80° C. freezer. • e) Polyacrylamide gel electrophoresis. Before protein loading, the protein was boiled at 98° C. for 10 min, and then centrifuged at 12000 rpm for 10 min. Electrophoresis: 80V for the upper stacking gel; 120V for the lower separating gel. • f) Protein transfer. The filter paper was soaked in the electrophoresis solution before use, and the PVDF membrane was put in methanol for 10s to activate, and the gel after electrophoresis was taken out from the electrophoresis tank, put in the order of filter paper—PVD membrane—gel-filter paper from bottom to top, and they were put into the transfer instrument, with transferring in constant current at 0.1 A for 70 min. • g) Blocking and antibody incubation: the transferred PVDF membrane was placed in 5% BSA/TBST blocking solution, and blocked on a shaker at room temperature for 1 hour. The primary antibody was used to incubate at 4° C. overnight on a shaker (12-16 h); 1×TBST was used to wash three times, once every 10 minutes; the secondary antibody was used to incubate, shaked at room temperature for 1-2 h; 1×TBST was used to wash three times, once every 10 minutes. • h) Imaging by development: development was performed with ECL chemiluminescence hypersensitive chromogenic reagent.
(§1) Plasmids were transfected in HEK 293T or N2A cells for 36-48 hours and then lysed in cell lysis buffer [10% 1M tris-HCl (pH=6.8), 4% SDS, 20% glycerol, 0.01% bromophenol blue]. Lysates were shaken at room temperature for 10 min, then boiled for 10 min, and centrifuged at 12,000×g for 10 min. Proteins were run on 8% or 12% Tris-glycine SDS-PAGE and transferred to PVDF membranes (Life Technologies). Samples were incubated overnight at 4° C. with primary antibody diluted in 5% BSA buffer (in 1×TBST). After washing 3 times with 1×TBST, they were incubated with secondary antibody diluted in 5% BSA buffer (in 1×TBST) for 2 hours at room temperature. Finally, after washing 3 times with 1×TBST, the signal was detected by ECL Western blotting substrate (Solarbio, PE0010).
(§2) Data were analyzed by GraphPad Prism software (v6) using unpaired, paired, or one-sample t-tests. Aβ40 and Aβ42 levels were normalized to the corresponding GFP controls. α-CTF levels were normalized to FL-APP and corresponding GFP controls. All data are represented as mean±SEM. Statistical significance was defined as p<0.05. One, two, three and four stars (*) in the graph indicate p-values <0.05, <0.01, <0.001 and <0.0001, respectively.

[2] = system: γ-secretase (PS1, PS2) knockout HEK 293T cells; experiment: PS1 KO, PS2 KO and PS1/2 dKO HEK 293T cell lines: α-CTF and Aβ40; type: cell-based, human; details: PS1 single knockout HEK 293T cells
Protocol: (§3) • a) A plasmid expressing the target protein in mammalian cells was constructed, and the protein expression promoter is CAG. • b) The target protein was expressed in HEK 293T cell line. Cells were subcultured one day before transfection, and transfection was performed when the degree of cell adhesion reached 70%-80%. The transfection reagent was lipofectamine2000 (ThermoFisher). • c) 4-6 hours post transfection, the medium were replaced with fresh cell culture medium. • d) 36-48 hours post transfection, the cells were lysed (10% 1M tris-HCl (pH=6.8), 4% SDS, 20% glycerol, 0.01% bromophenol blue), and the protein samples were collected and used for Western blot or stored in a −80° C. freezer. • e) Polyacrylamide gel electrophoresis. Before protein loading, the protein was boiled at 98° C. for 10 min, and then centrifuged at 12000 rpm for 10 min. Electrophoresis: 80V for the upper stacking gel; 120V for the lower separating gel. • f) Protein transfer. […]

[3] = target: T1, human γ-secretase (Homo sapiens, UniProt P49768); experiment: Purified system: cleavage of purified β-CTF by purified γ-secretase to Aβ40 (ELISA); type: biochemical
T1 construct: full-length PS1, FL-PS1; N-terminal fragment of PS1, PS1 NTF; C-terminal fragment of PS1, PS1 CTF; made in house; host or cells: HEK 293T

[4] = system: APLP1; experiment: γ-cleavage of APLP1 expressed in HEK 293T cells (Western blot); type: cell-based; details: PF03084014 at 1 μM
Protocol: as §3
Plasmids were transfected in HEK 293T or N2A cells for 36-48 hours and then lysed in cell lysis buffer [10% 1M tris-HCl (pH=6.8), 4% SDS, 20% glycerol, 0.01% bromophenol blue]. […] Finally, after washing 3 times with 1×TBST, the signal was detected by ECL Western blotting substrate (Solarbio, PE0010).

[5] = system: N100 (NOTCH fragment); experiment: γ-cleavage of NOTCH fragment N100 in HEK 293T cells co-expressing γ-secretase (Western blot); type: cell-based; details: N100-V5 and γ-secretase, PF03084014 at 1 uM
Protocol: as §1

[6] = system: endogenously expressed APP in primary cultured mouse neurons; experiment: APP metabolite ~14 kD CTF in primary cultured mouse neurons (Western blot); type: cell-based; details: PF03084014 at 1 uM
[7] = system: human APP and β-secretase co-expressed in HEK 293T cells; experiment: HEK 293T cells co-expressing APP and β-secretase (BACE1): Aβ ELISA and β-CTF Western blot; type: cell-based; details: APP and β-secretase co-expressed, ELISA, vs GFP control
Protocol: The experiment was performed according to the standard procedure in the ELISA analysis kit of Invitrogen Company. • a) The target protein was expressed in HEK 293T cell line. Cells were subcultured one day before transfection, and transfection was performed when the degree of cell adhesion reached 70%-80%. The transfection reagent was lipofectamine2000 (ThermoFisher). • b) 4-6 hours post transfection, medium were replaced with fresh cell culture medium. • c) 36-48 hours post transfection, the cell culture medium was collected, and then the ELISA process was performed or the cell culture medium was frozen in a −80° C. refrigerator. • d) 50 μl of standard samples and experimental samples were added to each well of the 96-well plate. • e) 50 μl of human-derived Aβ40 or Aβ42 or mouse-derived Aβ40 detection antibody was added to each well of the 96-well plate. • f) The above samples were shaken gently and placed at room temperature for 3 hours. • g) The liquid in the well were removed, and the plate was washed 4 times with 1× wash buffer. • h) 100 μl of the buffer containing 1× anti-Rabbit IgG HRP was added. • i) The plate was shaken gently and placed at room temperature for […]. • j) The liquid in the well were removed, and the well was washed 4 times with 1× wash buffer. • k) 100 μl of Stabilized Chromogen was added to each well, and the plate was placed in the dark for 30 minutes at room temperature. • l) 100 μl of Stop Solution was added to each well. • m) The absorbance at 450 nm was measured with a microplate reader. 2.4 qRT-PCR
48 hours after transfection of HEK 293T cells and N2A cells, or 4.5 days after lentivirus infection of neurons, media and lysates were collected. Aβ40 and Aβ42 in the culture medium and cell lysates were detected by an Aβ ELISA kit as indicated in the protocol. (Invitrogen Technology; KHB3481 for human Aβ40, KHB3441 for human Aβ42 and KMB3481 for mouse Aβ40).
as §2

[8] = system: APP; experiment: APEX2 proximity labeling between ApoE and APP in HEK 293T cells; type: binding, human; details: co-expressed in HEK 293T cells
Protocol: (§4) A method for detecting protein interactions in living cells by targeting APEX2 was applied as previously described (Hung et al., 2016). Approximately 30 hours after transfection with APEX2 plasmids via Lipofectamine2000 (Invitrogen Technology), HEK 293T cells were incubated in 1 ml of complete medium with or without 250 uM biotinphenol (BP) for 30 minutes at 37° C. Cells were treated with 1 mM H2O2 for 1 min and cells were washed 3 times in quencher solution (10 mM sodium ascorbate, 5 mM Trolox and 10 mM sodium azide solution in 1×DPBS). Cells were lysed in RIPA lysis buffer (1× protein inhibitor cocktail, 1 mM PMSF and 10 mM sodium ascorbate, 5 mM Trolox and 10 mM sodium azide). The lysate was sonicated and centrifuged on ice (12,000×g, 4° C., 10 min), and the supernatant was incubated with streptavidin magnetic beads overnight at 4° C. The beads were collected using a magnetic rack and washed with a series of buffers (twice with RIPA buffer, once with 1M KCl, once with 0.1M Na2CO3, twice with 2 M urea in 10 mM Tris-HCl, pH 8.0, and twice with RIPA lysis buffer. Biotinylated proteins were eluted from the beads by boiling each sample in loading buffer comprising 2 mM biotin and 20 mM DTT for 10 min, and the eluates were collected. Samples proceed to Western blot.

[9] = system: endogenously expressed APP; experiment: APEX2 proximity labeling of endogenous APP in primary cultured neurons; type: binding; details: primary cultured rat neurons
[10] = target: T2, ADAM10 (α-secretase) (Homo sapiens, UniProt O14672); experiment: ApoE2-APEX2 proximity labeling of co-expressed ADAM10 in HEK 293T cells; type: binding
T2 construct: expressed in transfected cells; host or cells: HEK 293T
T2 sequence (O14672 214-748): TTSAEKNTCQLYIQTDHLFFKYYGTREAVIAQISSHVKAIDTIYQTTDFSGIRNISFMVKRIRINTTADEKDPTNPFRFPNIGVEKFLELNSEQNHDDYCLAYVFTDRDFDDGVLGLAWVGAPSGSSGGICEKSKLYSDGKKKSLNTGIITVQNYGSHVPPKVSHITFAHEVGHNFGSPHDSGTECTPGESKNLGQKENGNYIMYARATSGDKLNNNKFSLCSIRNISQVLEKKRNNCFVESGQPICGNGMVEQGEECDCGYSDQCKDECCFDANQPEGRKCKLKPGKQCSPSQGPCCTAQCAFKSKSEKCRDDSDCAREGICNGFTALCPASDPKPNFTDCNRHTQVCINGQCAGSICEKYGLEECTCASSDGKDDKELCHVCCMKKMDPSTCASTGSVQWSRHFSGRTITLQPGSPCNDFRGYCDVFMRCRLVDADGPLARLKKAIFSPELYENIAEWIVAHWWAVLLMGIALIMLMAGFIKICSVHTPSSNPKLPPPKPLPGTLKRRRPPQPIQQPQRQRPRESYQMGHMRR
Protocol: as §4

[11] = target: T3, PS2 (Homo sapiens, UniProt P49810); experiment: ApoE2-APEX2 proximity labeling of co-expressed PS2 in HEK 293T cells; type: binding
T3 construct: expressed in transfected cells; host or cells: HEK 293T
Protocol: as §4

[12] = system: APP co-expressed in mouse neuron cell line N2A; experiment: α-CTF produced by APP co-expressed in N2A cells (Western blot); type: cell-based; details: Western blot, vs GFP control
Protocol: as §1, §2

Chain of APP (P05067 672-770 limits assumed): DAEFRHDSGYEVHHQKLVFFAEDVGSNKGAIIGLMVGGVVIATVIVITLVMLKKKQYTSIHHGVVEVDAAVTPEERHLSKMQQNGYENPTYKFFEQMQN

## CNC(=O)[C@@H](NC(=O)[C@H](CCCc1ccccc1)[C@H](C)N(O)C=O)C(C)(C)C [GI254023X, reference compound]
[1]; 1 μM
  α-CTF level after ADAM10 inhibitor: about 45%

## CCC[C@H](N[C@H]1CCc2cc(F)cc(F)c2C1)C(=O)Nc1cn(C(C)(C)CNCC(C)(C)C)cn1 [PF03084014]
[1]; APP and PS1 co-expressed, PF03084014 at 1 μM
  α-CTF produced by APP co-expressed with PS1: significantly increases α-CTF; also recorded: can increase the production of α-CTF; also recorded: also increases α-CTF
[2]
  α-CTF in PS1 KO cells: further increased α-CTF levels
[3]; 10 μM inhibitor
  generation of Aβ by γ-secretase and β-CTF: can inhibit the generation of Aβ; also recorded: can be inhibited
[3]; Example 2, legend b49: 1 uM inhibitor
  Aβ40 produced by incubation of γ-secretase with β-CTF: complete blocked
[4]
  α-like CTF of APLP1: significantly increase the α-like CTF; also recorded: enhancing its cleavage product; also recorded: increased the α-like CTF
[5]
  γ-secretase-dependent reduction of N100: reversed this reduction
[6]
  level of ~14 kD CTF (CTF141D) produced by APP metabolism: significantly increased

## ApoA1: another apolipoprotein co-expressed with APP, apolipoprotein A1
[1]
  α-CTF produced by co-expressed APP: failed to alter the levels of α-CTF
[7]
  production of Aβ40: failed to alter

## ApoE2-APEX2: ApoE2 fused to APEX2 (ascorbate peroxidase 2) for proximity labeling
[8]
  biotinylation of FL-APP and α-CTF: could also be biotinylated
[9]
  biotinylation of endogenously expressed APP: biotinylates
[10]
  biotinylation of co-expressed ADAM10: biotinylated
[11]
  biotinylation of co-expressed PS2: biotinylated

## ApoE2-V5: ApoE2 with tag protein V5 (SEQ ID NO: 82) at C-terminal
[1]
  α-CTF produced by co-expressed APP: can significantly increase the α-CTF

## ApoE3: human apolipoprotein E3, full-length 299 amino acid residues, SEQ ID NO: 89
[1]
  α-CTF produced by co-expressed APP: can significantly increase α-CTF; also recorded: significantly increased the α-CTF levels
[7]
  production of Aβ40: have no such effect
[12]
  α-CTF produced by co-expressed APP: significantly increased the α-CTF levels

## ApoE4: human ApoE isoform ApoE4 (Arg112; Arg158)
[1]
  α-CTF produced by co-expressed APP: cannot significantly change α-CTF
[7]
  production of Aβ40: have no such effect; also recorded: failed to alter
[12]
  α-CTF produced by co-expressed APP: failed to alter α-CTF levels

## CT ND3CD25: SEQ ID NO: 32; ApoE CT minus 3 N-terminal and 25 C-terminal residues (EEMGSRTRDRLDEVKEQVAEVRAKLEEQAQQIRLQAEAFQARLKSWFEPLVEDMQR)
[7]
  production of Aβ40: can still significantly reduce Aβ40

## V5-ApoE2: ApoE2 with tag protein V5 (SEQ ID NO: 82) at N-terminal
[1]
  α-CTF produced by co-expressed APP: can significantly increase the α-CTF
